Measured values reported in patent publication US20220282271A1, “HERBICIDE RESISTANT PLANTS AND METHODS OF MAKING AND USING” (OFFICE OF INNOVATION ADVANCEMENT AND COMMERCIALIZATION, priority 2019, published 2022).

Key:
Assay type in all cases: in vivo
[1] = tested on: Eleusine indica biotypes (S, R1, R2); experiment: Herbicide rate screening assay (greenhouse, foliar-applied, visual injury); details: for I50, estimated rate required to reduce Eleusine indica biotype by 50% (Visual Control/Injury) / I90, estimated rate required to reduce Eleusine indica biotype by 90% (Visual Control/Injury): injury scores 14 days after treatment; for Parameter estimate a of sigmoidal model y = a/(1 + exp(−(x − x0)/b)) for percent injury / Parameter estimate b of sigmoidal model y = a/(1 + exp(−(x − x0)/b)) for percent injury / Parameter estimate x0 of sigmoidal model y = a/(1 + exp(−(x − x0)/b)) for percent injury: x = log-transformed herbicide rate (kg/ha), 14 DAT; for Control at labelled rate application: oxadiazon 2.24 kg/ha
From the text: Three E. indica biotypes from different locations were used in this study. The R1 biotype was collected in Country Club of Virginia, Richmond, Va., and the R2 biotype was from River Bend Golf, New Bern, N.C. These two biotypes were previous confirmed resistant to preemergence application of oxadiazon, but have not been screened to other PPO inhibitors. The S biotype was collected from the Alabama Agricultural Experiment Station, Plant Breeding Unit, Tallassee, Ala., which was confirmed susceptible to PPO inhibitors. Seeds of the mature plants were harvested, air dried and stored in the 4° C. freezer until planted in the greenhouse.
Greenhouse conditions were 30±3° C. at day/night temperature and ˜70% average relative humidity. The E. indica seeds were placed on the soil surface and lightly covered with sand in 28 cm*20 cm flats and watered as needed daily to ensure germination. Two weeks after emergence, seedlings were separated and transplanted to in individual 10-cm pots (volumes=0.5 L). Pots were filled with surface horizon of Marvyn sandy loam (fine-loamy, kaolinitic, thermic Typic Kanhapludults) soil with pH 6.4 and 1.2% organic matter. The plants were irrigated three times daily for 2 min with overhead irrigation and fertilized once at one week after transplanting at approximately 50 kg N ha^−1 with Scott's Miracle-Gro All-Purpose fertilizer (The Scotts Miracle-Gro Co. Marysville, Ohio). Plants were 5-10 cm in height with 3-5 tillers in size at the time of herbicide treatment.
Herbicide treatments were foliar-applied at 280 L/ha using an enclosed spray chamber with a single 8002E nozzle (TeeJet Spray Systems Co, Wheaton, Ill.) at 32 PSI. Four herbicides were selected for the experiment: oxadiazon (Ronstar FLO, Bayer Environmental Sci., Research Triangle Park, N.C.), sulfentrazone (Dismiss, FMC Corporation, Philadelphia, Pa.), flumioxazin (Sureguard, Valent Corp., Walnut Creek, Calif.) and lactofen (Cobra, Valent Corp., Walnut Creek, Calif.). All the herbicides are from different herbicide chemical families of PPO inhibitors: oxadiazoles, triazolinone, N-phenylphthalimide and diphenyl ether, respectively. Herbicides were applied at 7 different rates based on each herbicide label rate: oxadiazon ranging from 0.14 to 8.96 kg/ha, sulfentrazone from 0.07 to 4.50 kg/ha, flumioxazin from 0.08 to 5.70 kg/ha, and lactofen from 0.029 to 1.75 kg/ha. A non-treated control (0 kg/ha) was included. 192 plants of each biotype were tested and experiments were conducted as completely random design, three replications for two runs.
The visual injury rating scores per plant at 14 days after treatment (DAT) were recorded, where the visual injury rating scores were based on a 0 to 100 scale, which 0 is equated to no phytotoxicity and 100 is equated to complete control. Data subjected to ANOVA analysis at a significance level of P<0.05 using the PROC GLM procedure of SAS 9.4 (SAS Institute Inc., Cary, N.C.). All the herbicide rates were log transformed to make equal spacing between the herbicide treatments in order to facilitate regression analysis. The non-treated control was transformed to equal spacing based on the log rates of each herbicide, respectively. Data were fitted to a sigmoidal model using SigmaPlot 10.2 (Systat Software Inc., London, UK) using a sigmoidal function (Equation 1).
y=a/(1+e^(−((x−x0)/b))) (1)
In this fit sigmoidal model, where y represents E. indica visual damage relative to non-treated control (%), x represents the log-transformed herbicide rates (kg/ha), three parameters (a, b, x0) represents the y intercept.

Albizia julibrissin = experiment: Weed control screen: silktree; details: 1.0 lb ai/a, applied approximately 3 weeks after emergence, relative to non-treated
Experimental: (§1) Herbicides were applied at a spray volume of 280 L/ha with no adjuvant added to any herbicide mixture. Weed control was rated on a 0 to 100 percent phytoxicity scale with 0 being no plant injury/phytotoxicity and 100 being complete plant dessication. Twenty-one weeds were evaluated for response to herbicides (Table 3). The weeds selected were a mixture of weeds common in agronomic and horticultural crops. Herbicide was applied to all species approximately 3 weeks after emergence. Plant phytotoxicity rated as percent control relative to the non-treated.

Senna obtusifolia = experiment: Weed control screen: sicklepod; details: 1.0 lb ai/a, applied approximately 3 weeks after emergence, relative to non-treated
Experimental: as §1

Murdannia nudiflora = experiment: Weed control screen: doveweed; details: 1.0 lb ai/a, applied approximately 3 weeks after emergence, relative to non-treated
Experimental: as §1

Cyperus iria = experiment: Weed control screen: rice flatsedge; details: 1.0 lb ai/a, applied approximately 3 weeks after emergence, relative to non-treated
Experimental: as §1

Ipomoea hederacea = experiment: Weed control screen: entireleaf morningglory; details: 1.0 lb ai/a, applied approximately 3 weeks after emergence, relative to non-treated
Experimental: as §1

Solanum carolinense = experiment: Weed control screen: Carolina horsenettle; details: 1.0 lb ai/a, applied approximately 3 weeks after emergence, relative to non-treated
Experimental: as §1

Kyllinga squamulata = experiment: Weed control screen: cock's comb kyllinga; details: 1.0 lb ai/a, applied approximately 3 weeks after emergence, relative to non-treated
Experimental: as §1

Eleusine indica = experiment: Weed control screen: goosegrass; details: 1.0 lb ai/a, applied approximately 3 weeks after emergence, relative to non-treated
Experimental: as §1

CC(C)Oc1cc(-n2nc(C(C)(C)C)oc2=O)c(Cl)cc1Cl [Oxadiazon, oxadiazon]
Increased resistance of oxadiazon resistant biotypes than the susceptible biotype ([1]; R1 and R2 vs S biotype, post-emergence applied): up to 20 fold
I50, estimated rate required to reduce Eleusine indica biotype by 50% (Visual Control/Injury) ([1]; R1 biotype): 8.15 kg ha^−1
I90, estimated rate required to reduce Eleusine indica biotype by 90% (Visual Control/Injury) ([1]; R1 biotype): 14.60 kg ha^−1
Parameter estimate a of sigmoidal model y = a/(1 + exp(−(x − x0)/b)) for percent injury ([1]; R1 biotype): 9925.40
Parameter estimate b of sigmoidal model y = a/(1 + exp(−(x − x0)/b)) for percent injury ([1]; R1 biotype): 0.53
Parameter estimate x0 of sigmoidal model y = a/(1 + exp(−(x − x0)/b)) for percent injury ([1]; R1 biotype): 3.75
I50, estimated rate required to reduce Eleusine indica biotype by 50% (Visual Control/Injury) ([1]; R2 biotype): 8.88 kg ha^−1
I90, estimated rate required to reduce Eleusine indica biotype by 90% (Visual Control/Injury) ([1]; R2 biotype): 18.29 kg ha^−1
Parameter estimate a of sigmoidal model y = a/(1 + exp(−(x − x0)/b)) for percent injury ([1]; R2 biotype): 64371.40
Parameter estimate b of sigmoidal model y = a/(1 + exp(−(x − x0)/b)) for percent injury ([1]; R2 biotype): 0.43
Parameter estimate x0 of sigmoidal model y = a/(1 + exp(−(x − x0)/b)) for percent injury ([1]; R2 biotype): 3.99
I50, estimated rate required to reduce Eleusine indica biotype by 50% (Visual Control/Injury) ([1]; S biotype): 0.32 kg ha^−1
I90, estimated rate required to reduce Eleusine indica biotype by 90% (Visual Control/Injury) ([1]; S biotype): 1.56 kg ha^−1
Control at labelled rate application ([1]; S biotype): > 80%
Parameter estimate a of sigmoidal model y = a/(1 + exp(−(x − x0)/b)) for percent injury ([1]; S biotype): 91.25
Parameter estimate b of sigmoidal model y = a/(1 + exp(−(x − x0)/b)) for percent injury ([1]; S biotype): 0.25
Parameter estimate x0 of sigmoidal model y = a/(1 + exp(−(x − x0)/b)) for percent injury ([1]; S biotype): −0.54
Control at labelled rate application ([1]; resistant biotypes (R1 and R2), flumioxazin 0.357 kg/ha, sulfentrazone 0.28 kg/ha, lactofen 0.22 kg/ha): < 20%
Control at labelled rate application ([1]; resistant biotypes (R1 and R2), flumioxazin 0.357 kg/ha, sulfentrazone 0.28 kg/ha, lactofen 0.22 kg/ha, listed as oxadiazon): less than 10%
Percent control (0 to 100) (Albizia julibrissin): 50%
Percent control (0 to 100) (Senna obtusifolia): 90%
Percent control (0 to 100) (Murdannia nudiflora): 0%
Percent control (0 to 100) (Cyperus iria): 60%
Percent control (0 to 100) (Ipomoea hederacea): 100%
Percent control (0 to 100) (Solanum carolinense): 60%
Percent control (0 to 100) (Kyllinga squamulata): 75%
Percent control (0 to 100) (Eleusine indica): 100%
